In US3933793A, “Therapeutically active 2-aminoalkylthio-3H-1.5-benzodiazepines and process for preparing them” (Recordati S.A. Chemical and Pharmaceutical Company, priority 1971, dated 1976):
Values after ≈ are worked out from the molar mass of the structure shown. Where a name gives a salt, the structure may show the parent alone.

Assays:
[1] = tested on: Bacillus subtilis ATCC 9466; experiment: Antibacterial activity, minimum inhibitory concentration; conditions: ATCC9466, 18 h, read-out: minimum inhibitory concentration, B. subtilis
Protocol: (§1) The antibacterial activity of some of the 3H-1,5-benzodiazepines having the general formula I was tested on the following microorganisms:
(§2) Escherichia coli 100, Bacillus subtilis ATCC 9466, Micrococcus pyogenes SG-511, grown in Difco nutritive gelatin; Streptococcus pyogenes A 88 grown in Difco "Brain heart infusion agar" gelatin with 5 percent difibrinated Guinea pig blood.
(§3) The results were read after 18 hours incubation at 35°-37°C.

[2] = tested on: Streptococcus pyogenes A 88; experiment: as above; conditions: A88, 18 h, read-out: minimum inhibitory concentration, S. pyogenes
Protocol: as §1, §2, §3

[3] = tested on: influenza A virus (PR8 strain); assay type: in vivo; conditions: 0.5 MTD in 10 ml buffered saline with virus, 1 hour at 37°C
Escherichia coli 100 = experiment: Antibacterial activity, minimum inhibitory concentration; conditions: Escherichia coli, 100, 18 h, read-out: minimum inhibitory concentration, B. coli
Protocol: as §1, §2, §3

[4] = tested on: Micrococcus pyogenes SG-511; experiment: as above; conditions: Staphylococcus aureus, SG511, 18 h, read-out: minimum inhibitory concentration, M. pyogenes
Protocol: as §1, §2, §3

| SMILES | MIC [1] [µg/mL] | MIC [2] [µg/mL] | APR8: difference between logarithms of EID95 of controls and of treated eggs [3] | MIC (Escherichia coli 100) [µg/mL] | MIC [4] [µg/mL] |
| --- | --- | --- | --- | --- | --- |
| CCN(CC)CCSC1=Nc2ccccc2N=C(c2ccc(C)cc2)C1 [Compound 66] | 40 (≈ 109 µM) | 80 (≈ 219 µM) | 1 | – | – |
| C[N+](C)(C)CCCSC1=Nc2ccccc2N=C(c2ccc(Sc3ccccc3)cc2)C1 [Compound 42, 2,gamma,N-dimethylaminopropylthio-4,p-phenylthiophenyl-3H-1,5-benzodiazepine iodomethylate] | 40 | – | 3 | 80 | – |
| CC[N+](C)(CC)CCCSC1=Nc2ccccc2N=C(c2ccc(Sc3ccccc3)cc2)C1 [Compound 40, 2,gamma,N-diethylaminopropylthio-4,p-phenylthiophenyl-3H-1,5-benzodiazepineiodomethylate] | 5 | 5 | 1 | 5 | – |
| C[N+]1(CCSC2=Nc3ccccc3N=C(c3ccc(Sc4ccccc4)cc3)C2)CCCCC1 [Compound 48, 2,beta,N-piperidinoethylthio-4,p-phenylthiophenyl-3H-1,5-benzodiazepine iodomethylate] | 10 | – | > 4 | 80 | – |
| C[N+]1(CCSC2=Nc3ccccc3N=C(c3ccc(Sc4ccccc4)cc3)C2)CCOCC1 [Compound 50, 2,beta,N-morpholinoethylthio-4,p-phenylthiophenyl-3H-1,5-benzodiazepine iodomethylate] | 10 | – | 2 | 160 | – |
| CN(C)CCCSC1=Nc2ccccc2N=C(c2ccc(Sc3ccccc3)cc2)C1 [Compound 41, 2,gamma,N-dimethylaminopropylthio-4,p-phenylthiophenyl-3H-1,5-benzodiazepine.HCl] | 10 | 1.25 | > 3 | – | – |
| CN1CCN(CCSC2=Nc3ccccc3N=C(c3ccc(Sc4ccccc4)cc3)C2)CC1 [Compound 34, 2,beta,N(N'-methyl)piperazinoethylthio-4,p-phenylthiophenyl-3H-1,5-benzodiazepine citrate] | 40 | – | > 3 | – | – |
| C[N+](C)(C)CCSC1=Nc2ccccc2N=C(c2ccc(Sc3ccccc3)cc2)C1 [Compound 46, 2,beta,N-dimethylaminoethylthio-4,p-phenylthiophenyl-3H-1,5-benzodiazepine iodomethylate] | 20 | – | 2 | 160 | – |
| C[N+]1(CCCSC2=Nc3ccccc3N=C(c3ccc(Sc4ccccc4)cc3)C2)CCCC1 [Compound 38, 2,gamma,N-pyrrolidinopropylthio-4,p-phenylthiophenyl-3H-1,5-benzodiazepine iodomethylate] | 10 | 10 | 3 | 160 | 2.5 |
| C[N+]1(CCSC2=Nc3ccccc3N=C(c3ccc(Sc4ccccc4)cc3)C2)CCCC1 [Compound 44, 2, beta,N-pyrrolidinoethylthio-4,p-phenylthiophenyl-3H-1,5-benzodiazepine iodomethylate] | 40 | – | 2 | 160 | – |
